The text below walks through data of patent US8119647B2, “Fused pyrimidineone compounds as TRPV3 modulators” (Glenmark Pharmaceuticals S.A., priority 2008, dated 2012).

For the test, the target named is T1, Human TRPV3 (Homo sapiens, UniProt Q8NET8).
T1 construct: expressed in transfected cells; host or cells: CHO cells (G-418 selection)
T1 sequence (Q8NET8 1-790): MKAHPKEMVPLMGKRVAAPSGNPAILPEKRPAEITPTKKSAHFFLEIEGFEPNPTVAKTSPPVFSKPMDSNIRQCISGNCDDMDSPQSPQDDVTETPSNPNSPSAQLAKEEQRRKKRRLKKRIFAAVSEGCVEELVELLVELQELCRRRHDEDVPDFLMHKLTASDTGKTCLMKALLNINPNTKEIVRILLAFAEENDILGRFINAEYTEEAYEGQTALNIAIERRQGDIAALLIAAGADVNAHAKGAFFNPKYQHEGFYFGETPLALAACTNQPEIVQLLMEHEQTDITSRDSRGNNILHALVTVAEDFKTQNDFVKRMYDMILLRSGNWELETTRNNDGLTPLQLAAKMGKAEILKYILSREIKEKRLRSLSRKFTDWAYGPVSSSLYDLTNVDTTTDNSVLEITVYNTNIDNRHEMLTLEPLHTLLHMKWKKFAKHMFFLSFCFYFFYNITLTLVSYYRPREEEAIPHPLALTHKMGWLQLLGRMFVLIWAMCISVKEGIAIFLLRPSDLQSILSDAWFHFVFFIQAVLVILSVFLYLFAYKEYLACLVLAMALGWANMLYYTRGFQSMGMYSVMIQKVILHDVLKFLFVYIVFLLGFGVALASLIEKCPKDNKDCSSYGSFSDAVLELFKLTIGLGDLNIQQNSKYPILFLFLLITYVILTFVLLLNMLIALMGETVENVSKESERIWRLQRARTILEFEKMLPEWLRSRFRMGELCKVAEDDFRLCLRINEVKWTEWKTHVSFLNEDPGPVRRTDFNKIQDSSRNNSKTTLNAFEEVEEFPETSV
As to the kind of experiment: Screening for TRPV3 antagonist using the 45Calcium uptake assay (inhibition of 2-APB induced cellular uptake of radioactive calcium). In kind it is cell-based. As to conditions: human TRPV3 expressing CHO cells, 2-APB 500 μM; for Percentage inhibition at 1.0 μM / inhibition at 1 µM: 1.0 μM test compound; for Percentage inhibition at 10.0 μM / inhibition at 10 µM: 10.0 μM test compound; for inhibition at 1 µM: read-out: Percentage inhibition at 1.0 μM; for inhibition at 10 µM: read-out: Percentage inhibition at 10.0 μM; for IC50: class symbols. The text has this: The illustrative examples of the present invention are screened for TRPV3 activity according to a modified procedure described in Tóth, A., Kedei, N., Wang, Y. and Blumberg, P. M. Life Sciences (2003), 73, 487-498. The screening of the compounds can be carried out by other methods and procedures known to a person skilled in the art. Such screening methods may be found in (a) Hu, H.-Z. et al. J. Biol. Chem. (2004), 279, 35741-35747; (b) Smith, G. D. et al. Nature (2002), 418, 186-190; (c) Peier, A. M. et al. Science (2002), 296, 2046-2049.
Screening for TRPV3 Antagonist Using the ^45Calcium Uptake Assay:
The inhibition of TRPV3 receptor activation was followed as inhibition of 2-aminoethoxydiphenylborate (2-APB) induced cellular uptake of radioactive calcium. Test compounds were dissolved in dimethyl sulfoxide (DMSO) to prepare 20 mM stock solution and then diluted using plain medium with DMEM/F-12 containing 1.8 mM CaCl2 to get desired concentration. Final concentration of DMSO in the reaction was 0.5% (v/v). Human TRPV3 expressing CHO cells were grown in DMEM/F-12 medium with 10% FBS, 1% penicillin-streptomycin solution, 400 μg/ml of G-418. Cells were seeded 24 h prior to the assay in 96 well plates so as to get ˜50,000 cells per well on the day of experiment. Cells were treated with test compounds for 10 minutes followed by addition of 2-APB at a final concentration of 500 μM and 5 μCi/ml ^45Ca^+2 for 4 minutes. Cells were washed and lysed using buffer containing 1% Triton X-100, 0.1% deoxycholate and 0.1% SDS. Radioactivity in the lysate was measured in Packardt Top count after addition of liquid scintillant. Concentration response curves were plotted as a % of maximal response obtained in the absence of test antagonist. IC50 value was calculated from concentration response curve by nonlinear regression analysis using GraphPad PRISM software.
Percentage inhibition at concentrations of 1.0 μM and 10.0 μM are given in the table along with IC50 (nM) values for selected examples.

Where only a bound is given, the exact number is not on record here.

For the compound “7-[(E)-2-(4-Chlorophenyl)vinyl]-6-phenyl-5H-[1,3]thiazolo[3,2-a]pyrimidin-5-one [Example 1]”, the “Percentage inhibition at 1.0 μM” value is 6.9% and the “Percentage inhibition at 10.0 μM” value is 14.4%.
For “7-[(E)-2-{(3-Cyanopropoxy)-3-methoxy}phenylvinyl]-6-[4-(trifluoromethoxy)phenyl]-5H-[1,3]thiazolo[3,2-a]pyrimidin-5-one [Example 74]” the same measures were 30.20% and 86.42%.
For orientation: inhibition means the change of the read-out against control, counted positive when it falls. One may read the IC50 as the concentration that inhibits the measured activity by half. `COc1cccc(/C=C/c2nc3sccn3c(=O)c2-c2ccccc2)c1OCC1CC1` [Example 2, 7-{(E)-2-[2-(Cyclopropylmethoxy)-3-methoxyphenyl]vinyl}-6-phenyl-5H-[1,3]thiazolo[3,2-a]pyrimidin-5-one]: the inhibition at 1 µM came out at 10.4%, the inhibition at 10 µM was determined as 73.1% and the IC50 lay within 1000 to 10000 nM.
`COc1cccc(/C=C/c2nc3sccn3c(=O)c2-c2ccc(F)nc2)c1OCC1CC1` [Example 3]: the “Percentage inhibition at 1.0 μM” value is given as 20.1% and the “Percentage inhibition at 10.0 μM” value is recorded as 89.3%.
Regarding `COc1cccc(/C=C/c2nc3sccn3c(=O)c2-c2ccc(C(C)(C)C)cc2)c1OCC1CC1` [Example 4], the inhibition at 1 µM was 66.5%, the inhibition at 10 µM is 84.7% and the IC50 was 250 to 500 nM.
`COc1cccc(/C=C/c2nc3sccn3c(=O)c2-c2ccc(C(C)=O)cc2)c1OCC1CC1` [Example 5]: the “Percentage inhibition at 1.0 μM” value is reported as 60.3% and the “Percentage inhibition at 10.0 μM” value came out at 95.1%.
As to `COc1cccc(/C=C/c2nc3sccn3c(=O)c2-c2ccc(N(C)C)cc2)c1OCC1CC1` [Example 6, 6-(4-Dimethylaminophenyl)-7-[(E)-2-(2-cyclopropylmethoxy-3-methoxyphenyl]-1-ethenyl]-5H-[1,3]thiazolo[3,2-a]pyrimidin-5-one], the inhibition at 1 µM amounted to 76%, the inhibition at 10 µM was found to be 95.3% and the IC50 fell in the range of 250 to 500 nM.
Consider `COc1cccc(/C=C/c2nc3sccn3c(=O)c2-c2ccc(O)cc2)c1OCC1CC1` [Example 7, 7-[(E)-2-(2-Cyclopropylmethoxy-3-methoxyphenyl)-1-ethenyl]-6-(4-hydroxyphenyl)-5H-[1,3]thiazolo[3,2-a]pyrimidin-5-one], for which the inhibition at 1 µM amounted to 12% and the inhibition at 10 µM was 69.3%.
Take `COc1cccc(/C=C/c2nc3sccn3c(=O)c2-c2cc(F)cc(F)c2)c1OCC1CC1` [Example 8]: the “Percentage inhibition at 1.0 μM” value is 2.0% and the “Percentage inhibition at 10.0 μM” value worked out at 20.5%.
With `CCCCOc1c(/C=C/c2nc3sccn3c(=O)c2-c2ccc(C#N)cc2)cccc1OC` [Example 9, 4-{7-[(E)-2-(2-Butoxy-3-methoxyphenyl)-1-ethenyl]-5-oxo-5H-[1,3]thiazolo[3,2-a]pyrimidin-6-yl}benzonitrile], the inhibition at 1 µM turned out to be 71.6%, the inhibition at 10 µM came out at 91.9% and the half-maximal inhibitory concentration (IC50) lay in the range of 500 to 1000 nM.
For `CCCCCOc1c(/C=C/c2nc3sccn3c(=O)c2-c2ccc(C#N)cc2)cccc1OC` [Example 10, 4-{7-[(E)-2-(3-Methoxy-2-pentyloxyphenyl)-1-ethenyl]-5-oxo-5H-[1,3]-thiazolo[3,2-a]pyrimidin-6-yl}benzonitrile] the same measures were 74.8%, 92.9% and 250 to 500 nM.
Regarding `COc1cccc(/C=C/c2nc3sccn3c(=O)c2-c2ccc(C#N)cc2)c1OCCC(C)C` [Example 11, 4-{7-[(E)-2-(2-Isopentyloxy-3-methoxyphenyl)-1-ethenyl]-5-oxo-5H-[1,3]thiazolo[3,2-a]pyrimidin-6-yl}benzonitrile], the inhibition at 1 µM was 76.2%, the inhibition at 10 µM was 90% and the IC50 was below 250 nM.
Regarding `COc1cccc(/C=C/c2nc3sccn3c(=O)c2-c2ccc(C#N)cc2)c1OCC(C)C` [Example 12, 4-{7-[(E)-2-(2-Isobutoxy-3-methoxyphenyl)-1-ethenyl]-5-oxo-5H-[1,3]thiazolo[3,2-a]-pyrimidin-6-yl}benzonitrile], the inhibition at 1 µM was 74.7%, the inhibition at 10 µM turned out to be 94.8% and the IC50 was below 250 nM.
For `COc1cccc(/C=C/c2nc3sccn3c(=O)c2-c2ccc(C#N)cc2)c1OCC(C)(C)C` [Example 13, 4-{7-[(E)-2-(3-Methoxy-2-neopentyloxyphenyl)-1-ethenyl]-5-oxo-5H-[1,3]thiazolo[3,2-a]pyrimidin-6-yl}benzonitrile] the same measures were 91.9%, 95.4% and below 250 nM.
As to `COCCOc1c(/C=C/c2nc3sccn3c(=O)c2-c2ccc(C#N)cc2)cccc1OC` [Example 14, 4-{7-[(E)-2-(3-Methoxy-2-(2-methoxyethoxy)phenyl]-1-ethenyl}-5-oxo-5H-[1,3]-thiazolo[3,2-a]pyrimidin-6-yl}benzonitrile], the inhibition at 1 µM is 41% and the inhibition at 10 µM came to 88.1%.
Regarding `CCOCCOc1c(/C=C/c2nc3sccn3c(=O)c2-c2ccc(C#N)cc2)cccc1OC` [Example 15, 4-{7-[(E)-2-(2-Ethoxyethoxy-3-methoxyphenyl]-1-ethenyl}-5-oxo-5H-[1,3]thiazolo[3,2-a]pyrimidin-6-yl}benzonitrile], the inhibition at 1 µM is 73.1%, the inhibition at 10 µM came to 94.8% and the IC50 fell in the range of 500 to 1000 nM.
For `COc1cccc(/C=C/c2nc3sccn3c(=O)c2-c2ccc(C#N)cc2)c1OCC1CC1` [Example 16, 4-{7-[(E)-2-[2-(Cyclopropylmethoxy)-3-methoxyphenyl]-1-ethenyl}-5-oxo-5H-[1,3]thiazolo[3,2-a]pyrimidin-6-yl}benzonitrile] the same measures were 59.3%, 91.7% and 500 to 1000 nM.
As for `COc1cccc(/C=C/c2nc3sccn3c(=O)c2-c2ccc(C#N)cc2)c1OCC1CCC1` [Example 17, 4-{7-[(E)-2-(2-Cyclobutylmethoxy-3-methoxy)phenyl-1-ethenyl]-5-oxo-5H-[1,3]-thiazolo[3,2-a]pyrimidin-6-yl}benzonitrile], the inhibition at 1 µM was determined as 73%, the inhibition at 10 µM was determined as 91.1% and the 50% inhibitory concentration (IC50) was below 250 nM.
Regarding `COc1cccc(/C=C/c2nc3sccn3c(=O)c2-c2ccc(C#N)cc2)c1OC1CCCC1` [Example 18, 4-{7-[(E)-2-(2-Cyclopentyloxy-3-methoxy)phenyl-1-ethenyl]-5-oxo-5H-[1,3]thiazolo-[3,2-a]pyrimidin-6-yl}benzonitrile], the “Percentage inhibition at 1.0 μM” value was found to be 85.0%, the “Percentage inhibition at 10.0 μM” value is listed as 94.2% and the IC50 is below 250 nM.
In the case of `COc1cccc(/C=C/c2nc3sccn3c(=O)c2-c2ccc(C#N)cc2)c1OCC1CCCCC1` [Example 19, 4-{7-[(E)-2-(2-Cyclohexylmethoxy-3-methoxy)phenyl-1-ethenyl]-5-oxo-5H-[1,3]-thiazolo[3,2-a]pyrimidin-6-yl}benzonitrile], the inhibition at 1 µM worked out at 74.6%, the inhibition at 10 µM stood at 88.4% and the IC50 was in the range of 250 to 500 nM.
Take `COc1cccc(/C=C/c2nc3sccn3c(=O)c2-c2ccc(C#N)cc2)c1OCc1cccc(F)c1` [Example 20]: the “Percentage inhibition at 1.0 μM” value is given as 56.5% and the “Percentage inhibition at 10.0 μM” value is 79.3%.
